{"source": "patent US20100047762A1", "about": "“METHOD TO MONITOR DRUG EFFICACY IN DIABETIC PATIENTS USING AN ASSAY FOR 1,5-ANHYDRO-D-GLUCITOL” (NIPPON KAYAKU KABUSHIKI KAISHA, priority 2007, published 2010)", "key": {"[1]": {"conditions": "following a meal; cited from earlier work"}, "[2]": {"system": "patients with type I diabetes (T1DM)", "assay": "Post-hoc analysis of randomized, double-blind, placebo-controlled study of pramlintide in T1DM subjects on intensive insulin therapy (baseline HbA1c≦8%)", "format": "in vivo, human", "description": "1,5-AG was assessed as a marker of post-prandial blood glucose (PPG) control in pramlintide-treated patients with type I diabetes (TIDM). PPG is the glucose that appears in the blood stream and tissues after a meal. PPG predominates in the serum over average fasting glucose at HbA1c's less than 8.5%. Antihyperglycemic drugs affect PPG.\nPost-hoc analysis of a randomized, double-blind, placebo-controlled study of a subset of subjects with T1DM on intensive insulin therapy with a baseline HbA1c≦8% (N=37, age 40±12 y; HbA1c 7.5±0.3%; weight 85.9±20.8 kg; mean±SD) treated with pramlintide (30/60 μg) or placebo with major meals.\n• HbA1c, weight, and insulin dose measured at scheduled visits • Pre-prandial and post-prandial self-monitored blood glucose (SMBG) daily • Plasma 1,5-AG (GlycoMark assay) measured at baseline and week 29\n• All evaluable subjects with a baseline HbA1c≦8% and 1,5-AG measured at baseline and week 29 • Mean (±SE) change from baseline HbA1c, body weight, PPG, insulin use and 1,5-AG at week 29 • A repeated measures analysis across all study visits was performed comparing pramlintide and placebo groups"}}}
{"smiles": "CC[C@H](C)[C@H](NC(=O)[C@@H]1CCCN1C(=O)CNC(=O)[C@H](Cc1ccccc1)NC(=O)[C@H](CC(N)=O)NC(=O)[C@H](CC(N)=O)NC(=O)[C@H](CO)NC(=O)[C@H](CO)NC(=O)[C@H](Cc1c[nH]cn1)NC(=O)[C@@H](NC(=O)[C@H](CC(C)C)NC(=O)[C@H](Cc1ccccc1)NC(=O)[C@H](CC(N)=O)NC(=O)[C@H](C)NC(=O)[C@H](CC(C)C)NC(=O)[C@H](CCCNC(=N)N)NC(=O)[C@H](CCC(N)=O)NC(=O)[C@@H](NC(=O)[C@H](C)NC(=O)[C@@H]1CSSC[C@H](NC(=O)[C@@H](N)CCCCN)C(=O)N[C@@H](CC(N)=O)C(=O)N[C@@H]([C@@H](C)O)C(=O)N[C@@H](C)C(=O)N[C@@H]([C@@H](C)O)C(=O)N1)[C@@H](C)O)C(C)C)C(=O)N[C@@H](CC(C)C)C(=O)N1CCC[C@H]1C(=O)N1CCC[C@H]1C(=O)N[C@H](C(=O)N[C@@H](CC(N)=O)C(=O)N[C@H](C(=O)NCC(=O)N[C@@H](CO)C(=O)N[C@@H](CC(N)=O)C(=O)N[C@H](C(=O)N[C@@H](Cc1ccc(O)cc1)C(N)=O)[C@@H](C)O)C(C)C)[C@@H](C)O", "note": "[Pramlintide, L-Lysyl-L-cysteinyl-L-asparaginyl-L-threonyl-L-alanyl-L-threonyl-L-cysteinyl-L-alanyl-L-threonyl-L-glutaminyl-L-arginyl-L-leucyl-L-alanyl-L-asparaginyl-L-phenylalanyl-L-leucyl-L-valyl-L-histidyl-L-seryl-L-seryl-L-asparaginyl-L-phenylalanyl-glycyl-L-protyl-L-isoleucyl-L-leucyl-L-protyl-L-threonyl-L-asparaginyl-L-valyl-L-glycyl-L-seryl-L-prollneamylin (human) acetate hydrate]", "values": [{"measurement": "duration of the slowing of gastric emptying following Pramlintide administration", "setting": "[1]", "value": "approximately 3 hours"}, {"measurement": "Body Weight, % Change from baseline", "setting": "[2]; 4 weeks", "value": "−0.7", "unit": "%"}, {"measurement": "Body Weight, Mean", "setting": "[2]; 4 weeks", "value": 84.2, "unit": "kg"}, {"measurement": "HbA1c, % Change from baseline", "setting": "[2]; 4 weeks", "value": "−7.4", "unit": "%"}, {"measurement": "PPG, % Change from baseline", "setting": "[2]; 4 weeks", "value": "−18.9", "unit": "%"}, {"measurement": "PPG, Mean", "setting": "[2]; 4 weeks", "value": 143, "unit": "mg/dL"}, {"measurement": "HbA1c, Mean", "setting": "[2]; 4 weeks, n = 18", "value": 7.0, "unit": "%"}, {"measurement": "Plasma 1,5-AG, % Change from baseline", "setting": "[2]; 4 weeks, pramlintide 30/60 μg with major meals", "value": 15.9, "unit": "%"}, {"measurement": "Plasma 1,5-AG, Mean", "setting": "[2]; 4 weeks, pramlintide 30/60 μg with major meals, n = 18", "value": 6.4, "unit": "µg/mL"}, {"measurement": "Body Weight, % Change from baseline", "setting": "[2]; 16 weeks", "value": "−2.8", "unit": "%"}, {"measurement": "Body Weight, Mean", "setting": "[2]; 16 weeks", "value": 82.5, "unit": "kg"}, {"measurement": "HbA1c, % Change from baseline", "setting": "[2]; 16 weeks", "value": "−7.0", "unit": "%"}, {"measurement": "PPG, % Change from baseline", "setting": "[2]; 16 weeks", "value": "−16.8", "unit": "%"}, {"measurement": "PPG, Mean", "setting": "[2]; 16 weeks", "value": 145, "unit": "mg/dL"}, {"measurement": "Plasma 1,5-AG, % Change from baseline", "setting": "[2]; 16 weeks", "value": 23.4, "unit": "%"}, {"measurement": "HbA1c, Mean", "setting": "[2]; 16 weeks, n = 16", "value": 7.2, "unit": "%"}, {"measurement": "Plasma 1,5-AG, Mean", "setting": "[2]; 16 weeks, n = 17", "value": 7, "unit": "µg/mL"}, {"measurement": "Body Weight, % Change from baseline", "setting": "[2]; 29 weeks", "value": "−2.2", "unit": "%"}, {"measurement": "Body Weight, Mean", "setting": "[2]; 29 weeks", "value": 83.0, "unit": "kg"}, {"measurement": "HbA1c, % Change from baseline", "setting": "[2]; 29 weeks", "value": "−4.5", "unit": "%"}, {"measurement": "PPG, % Change from baseline", "setting": "[2]; 29 weeks", "value": "−27.2", "unit": "%"}, {"measurement": "PPG, Mean", "setting": "[2]; 29 weeks", "value": 135, "unit": "mg/dL"}, {"measurement": "Plasma 1,5-AG, % Change from baseline", "setting": "[2]; 29 weeks", "value": 29.8, "unit": "%"}, {"measurement": "most common adverse event associated with pramlintide use", "setting": "[2]; 29 weeks of treatment", "value": "mild to moderate nausea"}, {"measurement": "HbA1c, Mean", "setting": "[2]; 29 weeks, n = 18", "value": 7.4, "unit": "%"}, {"measurement": "Plasma 1,5-AG, Mean", "setting": "[2]; 29 weeks, n = 18", "value": 6.9, "unit": "µg/mL"}, {"measurement": "fasting plasma 1,5-AG levels, relative change from baseline", "setting": "[2]; baseline to wk 29, mean±SE, P<0.01 vs placebo", "value": "+30±16%"}, {"measurement": "fasting plasma 1,5-AG levels, absolute change from baseline", "setting": "[2]; baseline to wk 29, mean±SE, P<0.05 vs placebo", "value": "+0.96±0.91 μg/mL"}, {"measurement": "mealtime insulin use", "setting": "[2]; week 29, pramlintide-treated subjects", "value": "significantly decreased"}, {"measurement": "2 hr PPG excursions, change from baseline", "setting": "[2]; week 29, n=18, mean±SE, P<0.001 vs placebo", "value": "-43.9 ± 10.9", "unit": "mg/dL"}, {"measurement": "body weight, change from baseline", "setting": "[2]; week 29, n=18, mean±SE, P<0.01 vs placebo", "value": "-2.0 ± 1.2", "unit": "kg"}, {"measurement": "HbA1c, change from baseline", "setting": "[2]; week 29, n=18, mean±SE, similar to placebo", "value": "−0.18±0.31", "unit": "%"}]}
